Test results: US20230148005A1, “MACROCYCLIC COMPOUNDS AND USES THEREOF” (THESEUS PHARMACEUTICALS, INC., priority 2020, published 2023)
pIC50: −log10 of the molar value.

How the values were obtained:
[1] = target: Ba/F3 EGFR-Del19/T790M/C797S (Homo sapiens, UniProt P00533, T790M/C797S, cells depend on it, form not given); test: Ba/F3 viability assay (CellTiter-Glo), DTC; type: cell-based; details: anti-proliferation, read-out: BaF3 DTC IC50
How it was run: (§1)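 Read-out: viability signal, used as the measure of proliferation inhibition by test compounds.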

EGFR^L58R/T790M = EGFR^L58R/T790M (Homo sapiens, UniProt P00533, L858R/T790M); test: in vitro kinase assay (HTRF KinEASE-TK kit), LT; type: biochemical; details: kinase inhibition
Source text: (§2) Assays using an in vitro kinase assay kit (HTRF KinEASE-TK kit) can be used to study the inhibitory activity of compounds described herein with respect to EGFR mutants such as EGFR^L858R, EGFR^L58R/T790M, and EGFR^L858R/T790M/C^797S.

Ba/F3 EGFR-Del19/C797S = Ba/F3 EGFR-Del19/C797S (Homo sapiens, UniProt P00533, C797S, cells depend on it, form not given); test: Ba/F3 viability assay (CellTiter-Glo), DC; type: cell-based; details: anti-proliferation, read-out: BaF3 DC IC50
How it was run: as §1

EGFR^L858R/T790M/C^797S = EGFR^L858R/T790M/C^797S (Homo sapiens, UniProt P00533, C797S/L858R/T790M); test: in vitro kinase assay (HTRF KinEASE-TK kit), LTC; type: biochemical; details: kinase inhibition
Source text: as §2

Ba/F3 EGFR-Del19/T790M = Ba/F3 EGFR-Del19/T790M (Homo sapiens, UniProt P00533, T790M, cells depend on it, form not given); test: Ba/F3 viability assay (CellTiter-Glo), DT; type: cell-based; details: anti-proliferation, read-out: BaF3 DT IC50
How it was run: as §1

EGFR^L858R = EGFR^L858R (Homo sapiens, UniProt P00533, L858R); test: in vitro kinase assay (HTRF KinEASE-TK kit), L; type: biochemical; details: kinase inhibition
Source text: as §2

Ba/F3 Parental = test: Ba/F3 viability assay (CellTiter-Glo), parental; type: cell-based; details: Mus musculus, BaF3, anti-proliferation
How it was run: as §1

Sequence of Ba/F3 EGFR-Del19/T790M (P00533 with tags, fused parts or gaps DEL746-750/T790M, form open): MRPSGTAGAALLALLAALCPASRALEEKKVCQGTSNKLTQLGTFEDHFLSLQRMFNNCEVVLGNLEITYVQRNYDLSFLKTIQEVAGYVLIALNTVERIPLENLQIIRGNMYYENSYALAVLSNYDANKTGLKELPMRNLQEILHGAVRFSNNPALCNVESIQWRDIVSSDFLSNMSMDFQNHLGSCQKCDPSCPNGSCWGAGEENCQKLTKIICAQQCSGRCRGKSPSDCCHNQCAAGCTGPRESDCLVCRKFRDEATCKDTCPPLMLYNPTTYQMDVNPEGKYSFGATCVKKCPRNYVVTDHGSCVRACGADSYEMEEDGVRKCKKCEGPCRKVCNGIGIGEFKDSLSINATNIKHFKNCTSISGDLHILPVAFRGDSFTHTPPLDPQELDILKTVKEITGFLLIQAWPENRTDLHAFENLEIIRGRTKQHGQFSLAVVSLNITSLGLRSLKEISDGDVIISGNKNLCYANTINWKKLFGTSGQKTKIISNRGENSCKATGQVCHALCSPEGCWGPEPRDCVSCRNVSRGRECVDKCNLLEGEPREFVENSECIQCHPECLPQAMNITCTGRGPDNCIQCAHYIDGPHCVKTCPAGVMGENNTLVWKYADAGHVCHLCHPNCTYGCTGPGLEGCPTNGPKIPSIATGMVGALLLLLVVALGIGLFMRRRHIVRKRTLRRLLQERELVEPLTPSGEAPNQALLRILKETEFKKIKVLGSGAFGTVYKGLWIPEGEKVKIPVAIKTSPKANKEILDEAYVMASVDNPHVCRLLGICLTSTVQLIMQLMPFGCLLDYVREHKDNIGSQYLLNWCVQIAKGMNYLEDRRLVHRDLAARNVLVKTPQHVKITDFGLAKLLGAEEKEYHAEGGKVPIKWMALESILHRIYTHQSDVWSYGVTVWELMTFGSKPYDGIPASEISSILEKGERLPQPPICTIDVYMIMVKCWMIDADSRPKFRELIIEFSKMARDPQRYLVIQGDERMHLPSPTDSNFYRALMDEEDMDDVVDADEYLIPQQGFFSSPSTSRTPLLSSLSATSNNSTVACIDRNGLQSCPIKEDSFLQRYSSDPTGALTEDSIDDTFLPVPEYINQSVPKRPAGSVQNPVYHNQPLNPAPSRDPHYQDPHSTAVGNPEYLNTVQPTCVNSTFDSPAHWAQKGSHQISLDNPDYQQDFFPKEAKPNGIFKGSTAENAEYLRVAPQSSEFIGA
Sequence of Ba/F3 EGFR-Del19/C797S (P00533 with tags, fused parts or gaps DEL746-750/C797S, form open): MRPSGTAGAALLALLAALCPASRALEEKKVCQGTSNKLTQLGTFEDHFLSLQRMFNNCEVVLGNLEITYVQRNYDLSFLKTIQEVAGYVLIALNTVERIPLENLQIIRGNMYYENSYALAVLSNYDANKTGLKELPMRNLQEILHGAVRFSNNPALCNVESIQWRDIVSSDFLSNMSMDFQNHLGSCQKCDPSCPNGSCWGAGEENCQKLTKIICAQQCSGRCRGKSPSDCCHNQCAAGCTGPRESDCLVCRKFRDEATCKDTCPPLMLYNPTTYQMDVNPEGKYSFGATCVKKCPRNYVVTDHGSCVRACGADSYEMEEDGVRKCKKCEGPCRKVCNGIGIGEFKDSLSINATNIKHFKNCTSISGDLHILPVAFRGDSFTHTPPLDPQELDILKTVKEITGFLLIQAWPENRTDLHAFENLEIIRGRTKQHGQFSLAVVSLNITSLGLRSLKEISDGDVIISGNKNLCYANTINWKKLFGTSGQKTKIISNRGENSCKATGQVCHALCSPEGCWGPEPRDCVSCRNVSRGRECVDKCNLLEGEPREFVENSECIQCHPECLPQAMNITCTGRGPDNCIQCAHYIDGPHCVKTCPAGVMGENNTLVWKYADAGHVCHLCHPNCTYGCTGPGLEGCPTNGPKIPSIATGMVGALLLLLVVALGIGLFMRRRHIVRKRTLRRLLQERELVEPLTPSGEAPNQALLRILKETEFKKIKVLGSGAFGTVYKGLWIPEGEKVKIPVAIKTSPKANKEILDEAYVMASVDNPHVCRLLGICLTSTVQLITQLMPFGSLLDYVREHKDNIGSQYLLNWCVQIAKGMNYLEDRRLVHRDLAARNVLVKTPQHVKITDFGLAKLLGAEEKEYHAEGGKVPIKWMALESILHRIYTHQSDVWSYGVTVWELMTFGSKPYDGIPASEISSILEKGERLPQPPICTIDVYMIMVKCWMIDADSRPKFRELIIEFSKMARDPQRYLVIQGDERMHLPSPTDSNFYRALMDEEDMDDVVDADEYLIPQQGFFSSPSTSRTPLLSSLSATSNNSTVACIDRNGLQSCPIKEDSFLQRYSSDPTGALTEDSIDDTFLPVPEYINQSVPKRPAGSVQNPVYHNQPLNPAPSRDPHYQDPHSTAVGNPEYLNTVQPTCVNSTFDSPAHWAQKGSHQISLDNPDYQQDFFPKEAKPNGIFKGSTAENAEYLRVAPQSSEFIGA
Sequence of EGFR^L858R (P00533 25-1210 L858R): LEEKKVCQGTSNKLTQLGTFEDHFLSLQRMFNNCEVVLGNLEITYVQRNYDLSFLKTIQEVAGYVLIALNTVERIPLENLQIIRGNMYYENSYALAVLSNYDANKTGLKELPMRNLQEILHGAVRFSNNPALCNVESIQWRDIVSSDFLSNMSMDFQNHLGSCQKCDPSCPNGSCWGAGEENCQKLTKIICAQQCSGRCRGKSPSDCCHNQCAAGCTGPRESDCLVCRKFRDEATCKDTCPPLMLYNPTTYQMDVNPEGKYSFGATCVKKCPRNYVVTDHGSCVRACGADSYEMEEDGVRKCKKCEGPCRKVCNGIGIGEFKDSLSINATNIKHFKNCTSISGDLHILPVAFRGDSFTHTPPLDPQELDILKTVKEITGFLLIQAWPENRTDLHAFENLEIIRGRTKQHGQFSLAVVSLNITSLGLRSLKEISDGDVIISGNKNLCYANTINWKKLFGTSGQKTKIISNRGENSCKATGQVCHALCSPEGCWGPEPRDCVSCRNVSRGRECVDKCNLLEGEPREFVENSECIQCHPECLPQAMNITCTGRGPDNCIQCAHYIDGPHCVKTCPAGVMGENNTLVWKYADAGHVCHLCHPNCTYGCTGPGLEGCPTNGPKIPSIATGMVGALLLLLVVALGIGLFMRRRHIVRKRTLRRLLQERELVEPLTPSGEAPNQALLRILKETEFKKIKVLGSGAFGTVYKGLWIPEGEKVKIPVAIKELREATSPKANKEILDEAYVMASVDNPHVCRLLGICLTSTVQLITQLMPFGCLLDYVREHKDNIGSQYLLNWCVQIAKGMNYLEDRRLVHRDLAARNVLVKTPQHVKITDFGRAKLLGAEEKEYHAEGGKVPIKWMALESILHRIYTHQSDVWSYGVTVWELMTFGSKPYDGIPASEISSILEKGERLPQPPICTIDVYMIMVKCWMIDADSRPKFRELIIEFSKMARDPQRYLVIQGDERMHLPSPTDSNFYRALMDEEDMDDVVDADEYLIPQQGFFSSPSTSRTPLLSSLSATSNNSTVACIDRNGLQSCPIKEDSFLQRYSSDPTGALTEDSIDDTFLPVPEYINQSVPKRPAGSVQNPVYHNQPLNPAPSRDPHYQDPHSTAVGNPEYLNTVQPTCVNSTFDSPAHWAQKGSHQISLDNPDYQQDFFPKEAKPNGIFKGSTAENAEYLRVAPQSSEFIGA
Sequence of EGFR^L858R/T790M/C^797S (P00533 25-1210 T790M/C797S/L858R): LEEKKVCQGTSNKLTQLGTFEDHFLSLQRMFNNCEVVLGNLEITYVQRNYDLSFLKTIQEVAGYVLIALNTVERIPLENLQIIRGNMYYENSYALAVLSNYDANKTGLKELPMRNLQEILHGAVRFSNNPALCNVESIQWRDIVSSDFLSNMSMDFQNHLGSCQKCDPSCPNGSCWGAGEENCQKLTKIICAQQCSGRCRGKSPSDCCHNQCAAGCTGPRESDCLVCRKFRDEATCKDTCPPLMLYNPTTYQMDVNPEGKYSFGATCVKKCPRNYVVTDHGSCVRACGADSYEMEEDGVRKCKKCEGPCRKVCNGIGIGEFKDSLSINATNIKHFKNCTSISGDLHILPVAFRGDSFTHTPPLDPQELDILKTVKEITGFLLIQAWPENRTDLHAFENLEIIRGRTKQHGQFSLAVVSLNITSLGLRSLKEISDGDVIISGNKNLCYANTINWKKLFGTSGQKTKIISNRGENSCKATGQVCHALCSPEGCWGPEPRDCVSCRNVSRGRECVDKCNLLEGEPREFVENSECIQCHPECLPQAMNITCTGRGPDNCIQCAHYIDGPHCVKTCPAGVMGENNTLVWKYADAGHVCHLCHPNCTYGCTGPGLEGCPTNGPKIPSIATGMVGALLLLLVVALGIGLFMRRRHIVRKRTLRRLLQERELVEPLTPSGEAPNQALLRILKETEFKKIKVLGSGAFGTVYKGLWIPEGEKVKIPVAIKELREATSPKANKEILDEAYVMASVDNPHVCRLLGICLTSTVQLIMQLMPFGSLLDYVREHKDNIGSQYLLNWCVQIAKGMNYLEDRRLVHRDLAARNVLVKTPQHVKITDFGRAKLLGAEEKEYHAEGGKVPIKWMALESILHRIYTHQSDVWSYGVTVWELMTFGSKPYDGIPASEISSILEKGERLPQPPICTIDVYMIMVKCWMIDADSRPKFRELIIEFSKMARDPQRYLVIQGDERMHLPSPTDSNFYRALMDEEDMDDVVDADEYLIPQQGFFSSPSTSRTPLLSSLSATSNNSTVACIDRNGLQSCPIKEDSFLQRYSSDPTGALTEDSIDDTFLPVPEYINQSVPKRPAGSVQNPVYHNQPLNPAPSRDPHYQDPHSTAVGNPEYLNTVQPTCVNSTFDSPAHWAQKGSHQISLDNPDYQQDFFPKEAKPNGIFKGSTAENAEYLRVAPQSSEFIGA

Row | Compound | pIC50 (EGFR^L58R/T790M) | pIC50 (EGFR^L858R/T790M/C^797S) | pIC50 (EGFR^L858R) | GI50 [1] | GI50 (Ba/F3 EGFR-Del19/C797S) | GI50 (Ba/F3 EGFR-Del19/T790M) | pIC50 (Ba/F3 Parental)
1 | CCn1cc(-c2nn3c4cc(ncc24)Nc2ccnc(n2)-c2cnn(C)c2OCC[C@@H]3C)cc1CN1CCN(C2CC2)CC1 [(126)] | > 8.00 | > 8.00 | > 8.00 | < 10 nM | < 10 nM | < 10 nM | 6.00 to 7.00
2 | C[C@H]1CCOc2c(cnn2C)-c2nccc(n2)Nc2cc3c(cn2)c(-c2ccc(CN(C)C)n2C)nn31 [(127)] | > 8.00 | > 8.00 | > 8.00 | < 10 nM | < 10 nM | < 10 nM | 6.00 to 7.00
3 | CCN1CCC(Oc2cc(F)cc(-c3nn4c5cc(ncc35)Nc3ccnc(n3)-c3cnn(C)c3OCC[C@@H]4C)c2)CC1 [(128)] | > 8.00 | > 8.00 | 7.00 to 8.00 | 10 to 100 nM | 10 to 100 nM | 10 to 100 nM | 6.00 to 7.00
4 | C[C@H]1CCOc2c(cnn2C)-c2nccc(n2)Nc2cc3c(cn2)c(-c2ccc(F)c(OCCN(C)C)c2)nn31 [(131)] | > 8.00 | > 8.00 | > 8.00 | < 10 nM | < 10 nM | < 10 nM | 6.00 to 7.00
5 | Cc1cc(OCCN(C)C)cc(-c2nn3c4cc(ncc24)Nc2ccnc(n2)-c2cnn(C)c2OCC[C@@H]3C)c1 [(134)] | > 8.00 | > 8.00 | > 8.00 | 10 to 100 nM | 10 to 100 nM | 10 to 100 nM | 6.00 to 7.00
6 | CCCN1CCN(Cc2ccc(-c3nn4c5cc(ncc35)Nc3ccnc(n3)-c3cnn(C)c3OCC[C@@H]4C)n2C)CC1 [(135)] | > 8.00 | > 8.00 | > 8.00 | < 10 nM | < 10 nM | < 10 nM | 6.00 to 7.00
7 | C[C@H]1CCOc2c(cnn2C)-c2nccc(n2)Nc2cc3c(cn2)c(-c2cc(CN4CCOCC4)n(C)c2)nn31 [(139)] | > 8.00 | > 8.00 | > 8.00 | < 10 nM | < 10 nM | < 10 nM | 6.00 to 7.00
8 | C[C@H]1CCOc2c(cnn2C)-c2nccc(n2)Nc2cc3c(cn2)c(-c2ccc(CN4CCCC4)n2C)nn31 [(140)] | > 8.00 | > 8.00 | > 8.00 | < 10 nM | < 10 nM | < 10 nM | 6.00 to 7.00
9 | CCN(CC)C1CCN(c2cc(F)cc(-c3nn4c5cc(ncc35)Nc3ccnc(n3)-c3cnn(C)c3OCC[C@@H]4C)c2)CC1 [(141)] | > 8.00 | > 8.00 | > 8.00 | 10 to 100 nM | 10 to 100 nM | 10 to 100 nM | 6.00 to 7.00
10 | CCCN1CCN(Cc2cnc(-c3nn4c5cc(ncc35)Nc3ccnc(n3)-c3cnn(C)c3OCC[C@@H]4C)s2)CC1 [(142)] | > 8.00 | > 8.00 | > 8.00 | < 10 nM | 10 to 100 nM | 10 to 100 nM | 6.00 to 7.00
11 | C[C@H]1CCOc2c(cnn2C)-c2nccc(n2)Nc2cc3c(cn2)c(-c2ncc(CN4CCOCC4)s2)nn31 [(143)] | > 8.00 | > 8.00 | 7.00 to 8.00 | 10 to 100 nM | 10 to 100 nM | 10 to 100 nM | ≤ 6.00
12 | C[C@H]1CCOc2c(cnn2C)-c2nccc(n2)Nc2cc3c(cn2)c(-c2cc(CN4CCN(C)CC4)n(C)c2)nn31 [(144)] | > 8.00 | > 8.00 | > 8.00 | < 10 nM | < 10 nM | < 10 nM | 7.00 to 8.00
13 | C[C@H]1CCOc2c(cnn2C)-c2nccc(n2)Nc2cc3c(cn2)c(-c2cccc(OCCN4CCOCC4)c2)nn31 [(145), (16S)-11,16-dimethyl-19-[3-(2-morpholinoethoxy)phenyl]-13-oxa-2,6,10,11,17,18,22,25-octazapentacyclo[15.5.2.1^3,7.0^8,12.0^20,24]pentacosa-1(22),3,5,7(25),8(12),9,18,20,23-nonaene] | > 8.00 | > 8.00 | > 8.00 | < 10 nM | 10 to 100 nM | < 10 nM | 6.00 to 7.00
14 | CCn1cc(-c2nn3c4cc(ncc24)Nc2ccnc(n2)-c2cnn(C)c2OCC[C@@H]3C)cc1CN1CCN(C)CC1 [(146)] | > 8.00 | > 8.00 | > 8.00 | < 10 nM | < 10 nM | < 10 nM | 6.00 to 7.00
15 | CCn1cc(-c2nn3c4cc(ncc24)Nc2ccnc(n2)-c2cnn(C)c2OCC[C@@H]3C)cc1CN1CCOCC1 [(148)] | > 8.00 | > 8.00 | > 8.00 | < 10 nM | < 10 nM | < 10 nM | 6.00 to 7.00
16 | Cc1ccc(-c2nn3c4cc(ncc24)Nc2ccnc(n2)-c2cnn(C)c2OCC[C@@H]3C)n1C [(150)] | > 8.00 | > 8.00 | 7.00 to 8.00 | 10 to 100 nM | 10 to 100 nM | 10 to 100 nM | ≤ 6.00
17 | CC(C)n1cc(-c2nn3c4cc(ncc24)Nc2ccnc(n2)-c2cnn(C)c2OCC[C@@H]3C)cc1CN1CCOCC1 [(151)] | > 8.00 | > 8.00 | > 8.00 | < 10 nM | 10 to 100 nM | < 10 nM | 6.00 to 7.00
18 | CCCn1cc(-c2nn3c4cc(ncc24)Nc2ccnc(n2)-c2cnn(C)c2OCC[C@@H]3C)cc1CN1CCOCC1 [(152)] | > 8.00 | > 8.00 | > 8.00 | < 10 nM | < 10 nM | < 10 nM | 6.00 to 7.00

More lines, main results first:

Row | pIC50 (EGFR^L58R/T790M) | pIC50 (EGFR^L858R/T790M/C^797S) | pIC50 (EGFR^L858R) | Compound | GI50 [1] | GI50 (Ba/F3 EGFR-Del19/C797S) | GI50 (Ba/F3 EGFR-Del19/T790M) | pIC50 (Ba/F3 Parental)
19 | > 8.00 | > 8.00 | > 8.00 | C[C@H]1CCOc2c(cnn2C)-c2nccc(n2)Nc2cc3c(cn2)c(-c2ccc(CN4CCN(C5COC5)CC4)n2C)nn31 [(124)] | < 10 nM | < 10 nM | < 10 nM | 6.00 to 7.00
20 | > 8.00 | > 8.00 | 7.00 to 8.00 | CCn1c(CN2CCN(C3CC3)CC2)ccc1-c1nn2c3cc(ncc13)Nc1ccnc(n1)-c1cnn(C)c1OCC[C@@H]2C [(125)] | < 10 nM | 10 to 100 nM | < 10 nM | 6.00 to 7.00
21 | > 8.00 | > 8.00 | 7.00 to 8.00 | C[C@H]1CCOc2c(cnn2C)-c2nccc(n2)Nc2cc3c(cn2)c(-c2cc(F)cc(OCCN(C)C)c2)nn31 [(129)] | 10 to 100 nM | 10 to 100 nM | 10 to 100 nM | 6.00 to 7.00
22 | > 8.00 | > 8.00 | 7.00 to 8.00 | C[C@H]1CCOc2c(cnn2C)-c2nccc(n2)Nc2cc3c(cn2)c(-c2cc(OCCN(C)C)ccc2F)nn31 [(130)] | 10 to 100 nM | 10 to 100 nM | 10 to 100 nM | ≤ 6.00
23 | > 8.00 | > 8.00 | 7.00 to 8.00 | CCN(CC)CCN(C)c1cc(F)cc(-c2nn3c4cc(ncc24)Nc2ccnc(n2)-c2cnn(C)c2OCC[C@@H]3C)c1 [(132)] | 10 to 100 nM | 10 to 100 nM | 10 to 100 nM | 6.00 to 7.00
24 | > 8.00 | > 8.00 | 7.00 to 8.00 | CCN(CC)CCOc1cc(F)cc(-c2nn3c4cc(ncc24)Nc2ccnc(n2)-c2cnn(C)c2OCC[C@@H]3C)c1 [(133)] | 10 to 100 nM | 10 to 100 nM | 10 to 100 nM | 6.00 to 7.00
25 | > 8.00 | > 8.00 | > 8.00 | COCCN(C)Cc1ccc(-c2nn3c4cc(ncc24)Nc2ccnc(n2)-c2cnn(C)c2OCC[C@@H]3C)n1C [(136)] | < 10 nM | < 10 nM | < 10 nM | 6.00 to 7.00
26 | > 8.00 | > 8.00 | > 8.00 | CCN(CC)Cc1ccc(-c2nn3c4cc(ncc24)Nc2ccnc(n2)-c2cnn(C)c2OCC[C@@H]3C)n1C [(137)] | < 10 nM | < 10 nM | < 10 nM | 6.00 to 7.00
27 | > 8.00 | > 8.00 | > 8.00 | CCCN(C)Cc1ccc(-c2nn3c4cc(ncc24)Nc2ccnc(n2)-c2cnn(C)c2OCC[C@@H]3C)n1C [(138)] | < 10 nM | < 10 nM | < 10 nM | 6.00 to 7.00
28 | > 8.00 | > 8.00 | > 8.00 | C[C@H]1CCOc2c(cnn2C)-c2nccc(n2)Nc2cc3c(cn2)c(-c2cc(CN4CCN(C5CC5)CC4)n(C)c2)nn31 [(147)] | < 10 nM | < 10 nM | < 10 nM | 6.00 to 7.00
29 | > 8.00 | > 8.00 | > 8.00 | CCN(CC)CCOc1cc(-c2nn3c4cc(ncc24)Nc2ccnc(n2)-c2cnn(C)c2OCC[C@@H]3C)ccc1F [(149)] | < 10 nM | 10 to 100 nM | < 10 nM | 6.00 to 7.00
